Legend:
THP-1 cells = experiment: Pro-inflammatory cytokine expression in LPS-stimulated THP-1 cells; assay type: cell-based; details: pre-treated 1 hour, then LPS 0.5 μg/ml 24 hours; FIG. 1a
[1] = tested on: peripheral blood mononuclear cells of inflammatory bowel disease patients; experiment: Inflammatory cytokine expression in PBMC of inflammatory bowel disease patients; assay type: cell-based, human; details: treated 24 hours; FIG. 4
[2] = Metabolic stability (MS) evaluation; assay type: in vitro ADME
Caco-2 permeability = assay type: in vitro ADME; details: human
Source text: Caco-2 permeability observes the cell membrane permeability of a drug, and can be considered an index associated with drug absorption and excretion.

[3] = tested on: IMQ-induced psoriasis-like skin inflammation model; experiment: Oral treatment in imiquimod (IMQ)-induced psoriasis-like skin inflammation; assay type: in vivo, BALB/c mice
Procedure: The positive control, methotrexate at 2 mg/kg and tofacitinib at 5 mg/kg were administered by oral gavage twice (BID) daily during the same study period.
Fifteen (15) mg Imiquimod (IMQ) cream (5%) (Aldara; 3M Pharmaceuticals) was topically (TOP) administered once daily (QD) on the right ear one hour after treatment from Day 1 to Day 9 for 9 consecutive days, translating to a daily dose of 0.75 mg of the active compound. Ear swelling was measured on Day 0 and thereafter 30 min before dosing on Days 2, 4, 6 and 8. On Day 10, ear swelling was measured 24 hours after the last dosing.

For `CCNc1cc(Nc2ccc(C(=O)N3CCC(N4CCOCC4)CC3)cc2OC)nc2[nH]cc(C(F)(F)F)c12` [Compound 1, (4-((4-(ethylamino)-3-(trifluoromethyl)-1H-pyrrolo[2,3-b]pyridine-6-yl)amino)-3-methoxyphenyl)(4-morpholinopiperidine-1-yl)methanone], the “expression of IL-6” value (THP-1 cells) was “effectively inhibited”, the “expression of TNF-α” value (THP-1 cells) was “effectively inhibited” and the “expression of IL-6” value [1] was “effectively inhibiting”. For the same molecule, the “expression of IL-17A” value [1] was “effectively inhibiting”, the “expression of TNF-α” value [1] was “effectively inhibiting” and the “MS (1 μM) (% remaining during 30 min) Human” value [2] was 39%. The Papp (Caco-2 permeability) was 0.201 ×10⁻⁶ cm/s, the “protective effects on IMQ-induced psoriasis-like inflammation (ear swelling)” value ([3]; 45 and 60 mg/kg PO BID×9 days) was “significantly (p<0.05) protective effects” and the IMQ-induced ear swelling ([3]; 45 and 60 mg/kg oral gavage BID 9 days, Day 8 to Day 10, vs vehicle group) was “statistically (p<0.05) significant inhibition”.
